# Laboratory results from article PMC8041284, “Tunable Methacrylamides for Covalent Ligand Directed Release Chemistry” (Journal of the American Chemical Society, 2021).
# Where two headings read alike, the source gives them in different places.
# Assays:
# BTK [1] = target: T1, BTK (Homo sapiens, UniProt Q06187); assay: biochemical; conditions: read-out: BTK inhibition (%), 0.75 uM BTK, […] probe 3l, 15 min preincubation
# BTK [2] = target: T1, BTK; conditions: 10 µM, inhibitor
# ERBB2 = ERBB2 (Homo sapiens, UniProt P04626); assay: In vitro kinase activity assay (Nanosyn)
# ITK = target: T2, ITK (Homo sapiens, UniProt Q08881); assay: In vitro kinase activity assay (Nanosyn)
# T2 sequence (Q08881 1-620): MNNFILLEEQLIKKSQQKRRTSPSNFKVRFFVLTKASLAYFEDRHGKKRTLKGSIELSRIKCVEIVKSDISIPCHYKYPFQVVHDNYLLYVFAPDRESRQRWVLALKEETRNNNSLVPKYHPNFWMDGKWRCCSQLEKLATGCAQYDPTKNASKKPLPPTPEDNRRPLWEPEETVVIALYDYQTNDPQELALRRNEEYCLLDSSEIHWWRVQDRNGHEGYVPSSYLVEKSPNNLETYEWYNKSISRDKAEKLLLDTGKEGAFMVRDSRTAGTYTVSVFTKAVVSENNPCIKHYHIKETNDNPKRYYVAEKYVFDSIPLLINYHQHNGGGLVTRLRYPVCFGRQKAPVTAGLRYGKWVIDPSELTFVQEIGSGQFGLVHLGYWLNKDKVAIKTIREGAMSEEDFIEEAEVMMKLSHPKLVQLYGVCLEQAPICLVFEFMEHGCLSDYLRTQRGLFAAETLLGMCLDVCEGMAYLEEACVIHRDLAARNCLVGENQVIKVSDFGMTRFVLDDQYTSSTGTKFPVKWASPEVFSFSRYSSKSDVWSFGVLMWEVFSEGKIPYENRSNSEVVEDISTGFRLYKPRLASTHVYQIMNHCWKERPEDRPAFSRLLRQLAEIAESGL
# primary mouse B cells = assay: B-cell response experiment (anti-IgM activation, CD86 by flow cytometry); format: cell-based; conditions: representative FACS plot, concentration not given
# EGFR = EGFR (Homo sapiens, UniProt P00533); assay: In vitro kinase activity assay (Nanosyn); format: biochemical; conditions: rounded; 2 h preincubation, 5 μM ATP
# BMX = target: T3, BMX (Homo sapiens, UniProt P51813); assay: In vitro kinase activity assay (Nanosyn)
# T3 sequence (P51813 1-675): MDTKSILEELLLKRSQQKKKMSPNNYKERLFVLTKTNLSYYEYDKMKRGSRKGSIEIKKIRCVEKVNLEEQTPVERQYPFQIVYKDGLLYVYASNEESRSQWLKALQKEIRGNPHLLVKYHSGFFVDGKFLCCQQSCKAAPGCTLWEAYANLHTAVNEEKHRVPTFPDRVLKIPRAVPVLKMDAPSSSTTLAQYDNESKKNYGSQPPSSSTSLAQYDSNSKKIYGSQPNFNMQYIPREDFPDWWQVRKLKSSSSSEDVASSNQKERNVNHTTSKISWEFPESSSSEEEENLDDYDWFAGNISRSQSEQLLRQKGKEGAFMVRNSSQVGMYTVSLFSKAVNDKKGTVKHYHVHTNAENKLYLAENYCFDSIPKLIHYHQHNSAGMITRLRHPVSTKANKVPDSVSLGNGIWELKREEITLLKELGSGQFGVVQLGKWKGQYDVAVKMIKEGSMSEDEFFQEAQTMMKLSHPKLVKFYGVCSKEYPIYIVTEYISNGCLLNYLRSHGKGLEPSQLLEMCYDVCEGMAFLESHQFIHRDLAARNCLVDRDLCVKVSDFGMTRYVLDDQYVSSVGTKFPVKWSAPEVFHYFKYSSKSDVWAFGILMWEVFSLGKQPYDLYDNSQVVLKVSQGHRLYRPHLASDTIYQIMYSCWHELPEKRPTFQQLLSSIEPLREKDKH
# BLK = BLK (Homo sapiens, UniProt P51451); assay: In vitro kinase activity assay (Nanosyn)
# wild-type BTK = wild-type BTK (Homo sapiens, UniProt Q06187); assay: In vitro kinase activity assay (Nanosyn); conditions: BTK IC50, 0.6 nM BTK, 5 μM ATP; Figure 4C
# [3] = 0.75 uM BTK, […] probe 3l, 15 min preincubation, BTK inhibition (%)
# [4] = 0.75 uM BTK, […] probe 3l, 15 min preincubation
# T1 sequence (Q06187 402-655 limits assumed): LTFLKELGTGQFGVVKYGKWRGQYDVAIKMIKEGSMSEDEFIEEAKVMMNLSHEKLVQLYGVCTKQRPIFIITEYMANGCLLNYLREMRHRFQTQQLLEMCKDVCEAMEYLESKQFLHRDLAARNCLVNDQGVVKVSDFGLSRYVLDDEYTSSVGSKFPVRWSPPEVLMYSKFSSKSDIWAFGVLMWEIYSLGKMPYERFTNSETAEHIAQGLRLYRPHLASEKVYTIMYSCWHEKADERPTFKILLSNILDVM
# Chain of BLK (P51451 whole entry, species assumed): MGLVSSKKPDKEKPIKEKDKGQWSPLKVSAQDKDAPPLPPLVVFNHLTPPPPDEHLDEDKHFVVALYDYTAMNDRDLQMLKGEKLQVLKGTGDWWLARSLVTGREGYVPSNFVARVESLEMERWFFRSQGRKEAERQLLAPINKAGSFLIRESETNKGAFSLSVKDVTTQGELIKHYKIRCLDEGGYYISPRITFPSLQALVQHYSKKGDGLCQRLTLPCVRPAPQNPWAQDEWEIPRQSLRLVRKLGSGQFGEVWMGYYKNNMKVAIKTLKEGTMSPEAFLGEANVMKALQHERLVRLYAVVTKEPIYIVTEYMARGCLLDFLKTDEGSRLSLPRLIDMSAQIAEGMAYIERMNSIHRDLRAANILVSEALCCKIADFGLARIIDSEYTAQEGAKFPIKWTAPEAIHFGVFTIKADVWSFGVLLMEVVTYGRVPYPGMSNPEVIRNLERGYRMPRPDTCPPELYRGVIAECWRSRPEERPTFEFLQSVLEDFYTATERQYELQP
# Chain of ERBB2 (P04626 23-1255, species assumed): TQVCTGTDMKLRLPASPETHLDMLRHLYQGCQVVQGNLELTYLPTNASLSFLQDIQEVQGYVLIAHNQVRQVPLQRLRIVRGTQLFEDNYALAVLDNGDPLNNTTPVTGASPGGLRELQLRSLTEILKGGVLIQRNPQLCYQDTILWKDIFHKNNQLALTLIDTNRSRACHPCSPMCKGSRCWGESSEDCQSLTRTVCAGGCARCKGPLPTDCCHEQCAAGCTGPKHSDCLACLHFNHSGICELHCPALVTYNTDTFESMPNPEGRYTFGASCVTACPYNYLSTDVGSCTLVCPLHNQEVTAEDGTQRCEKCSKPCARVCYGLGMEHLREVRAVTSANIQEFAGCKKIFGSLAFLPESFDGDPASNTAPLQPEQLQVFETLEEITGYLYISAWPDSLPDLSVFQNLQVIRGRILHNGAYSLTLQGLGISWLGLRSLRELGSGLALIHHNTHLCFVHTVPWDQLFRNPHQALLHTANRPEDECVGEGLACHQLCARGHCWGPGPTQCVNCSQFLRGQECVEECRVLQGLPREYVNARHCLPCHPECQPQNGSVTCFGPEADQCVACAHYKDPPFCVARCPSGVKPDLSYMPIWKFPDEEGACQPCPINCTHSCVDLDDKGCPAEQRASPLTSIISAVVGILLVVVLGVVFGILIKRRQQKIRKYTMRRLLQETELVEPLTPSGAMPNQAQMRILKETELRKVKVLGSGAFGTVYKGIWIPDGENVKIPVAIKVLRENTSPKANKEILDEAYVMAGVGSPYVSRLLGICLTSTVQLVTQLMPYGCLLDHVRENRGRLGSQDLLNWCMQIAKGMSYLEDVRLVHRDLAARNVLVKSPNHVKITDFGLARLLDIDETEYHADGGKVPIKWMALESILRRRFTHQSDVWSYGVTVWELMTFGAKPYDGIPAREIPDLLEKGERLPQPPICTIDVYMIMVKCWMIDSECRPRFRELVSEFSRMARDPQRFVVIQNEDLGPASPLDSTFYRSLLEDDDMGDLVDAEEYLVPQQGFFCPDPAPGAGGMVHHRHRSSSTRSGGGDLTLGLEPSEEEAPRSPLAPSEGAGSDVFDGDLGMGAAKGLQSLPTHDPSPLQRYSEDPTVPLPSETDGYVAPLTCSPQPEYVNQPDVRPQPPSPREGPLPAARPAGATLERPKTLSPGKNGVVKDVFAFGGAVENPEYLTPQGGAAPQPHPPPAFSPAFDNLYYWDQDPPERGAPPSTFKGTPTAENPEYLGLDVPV
# Chain of EGFR (P00533 25-1210): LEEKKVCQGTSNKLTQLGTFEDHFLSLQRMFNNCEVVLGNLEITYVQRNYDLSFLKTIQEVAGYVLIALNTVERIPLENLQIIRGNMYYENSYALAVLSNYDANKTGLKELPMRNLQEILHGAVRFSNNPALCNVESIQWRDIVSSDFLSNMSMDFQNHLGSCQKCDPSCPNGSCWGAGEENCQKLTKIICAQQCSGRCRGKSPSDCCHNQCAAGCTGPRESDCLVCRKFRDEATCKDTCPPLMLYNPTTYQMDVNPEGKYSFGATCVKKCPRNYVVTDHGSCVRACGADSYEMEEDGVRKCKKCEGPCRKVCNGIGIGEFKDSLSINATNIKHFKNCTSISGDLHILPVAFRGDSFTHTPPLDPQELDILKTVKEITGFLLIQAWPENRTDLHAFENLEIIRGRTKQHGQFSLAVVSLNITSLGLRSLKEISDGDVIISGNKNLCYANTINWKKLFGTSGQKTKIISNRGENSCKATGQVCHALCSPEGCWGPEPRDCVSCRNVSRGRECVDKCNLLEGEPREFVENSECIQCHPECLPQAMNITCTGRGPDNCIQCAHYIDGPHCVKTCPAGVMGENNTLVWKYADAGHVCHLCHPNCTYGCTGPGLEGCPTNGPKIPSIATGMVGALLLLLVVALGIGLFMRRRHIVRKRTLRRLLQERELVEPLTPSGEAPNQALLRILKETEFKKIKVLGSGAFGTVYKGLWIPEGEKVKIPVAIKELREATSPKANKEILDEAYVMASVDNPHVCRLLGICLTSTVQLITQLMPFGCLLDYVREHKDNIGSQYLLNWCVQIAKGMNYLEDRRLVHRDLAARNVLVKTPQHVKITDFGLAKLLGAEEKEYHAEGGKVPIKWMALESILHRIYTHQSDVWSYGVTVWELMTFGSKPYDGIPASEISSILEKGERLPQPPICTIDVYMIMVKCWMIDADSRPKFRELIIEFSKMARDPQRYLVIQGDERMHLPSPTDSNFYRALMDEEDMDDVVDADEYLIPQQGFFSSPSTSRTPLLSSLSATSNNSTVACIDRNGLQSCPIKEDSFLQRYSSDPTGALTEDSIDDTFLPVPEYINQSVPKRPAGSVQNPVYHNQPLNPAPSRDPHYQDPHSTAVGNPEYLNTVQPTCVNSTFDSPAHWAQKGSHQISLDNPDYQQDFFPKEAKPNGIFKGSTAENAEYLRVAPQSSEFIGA
# Chain of wild-type BTK (Q06187 whole entry): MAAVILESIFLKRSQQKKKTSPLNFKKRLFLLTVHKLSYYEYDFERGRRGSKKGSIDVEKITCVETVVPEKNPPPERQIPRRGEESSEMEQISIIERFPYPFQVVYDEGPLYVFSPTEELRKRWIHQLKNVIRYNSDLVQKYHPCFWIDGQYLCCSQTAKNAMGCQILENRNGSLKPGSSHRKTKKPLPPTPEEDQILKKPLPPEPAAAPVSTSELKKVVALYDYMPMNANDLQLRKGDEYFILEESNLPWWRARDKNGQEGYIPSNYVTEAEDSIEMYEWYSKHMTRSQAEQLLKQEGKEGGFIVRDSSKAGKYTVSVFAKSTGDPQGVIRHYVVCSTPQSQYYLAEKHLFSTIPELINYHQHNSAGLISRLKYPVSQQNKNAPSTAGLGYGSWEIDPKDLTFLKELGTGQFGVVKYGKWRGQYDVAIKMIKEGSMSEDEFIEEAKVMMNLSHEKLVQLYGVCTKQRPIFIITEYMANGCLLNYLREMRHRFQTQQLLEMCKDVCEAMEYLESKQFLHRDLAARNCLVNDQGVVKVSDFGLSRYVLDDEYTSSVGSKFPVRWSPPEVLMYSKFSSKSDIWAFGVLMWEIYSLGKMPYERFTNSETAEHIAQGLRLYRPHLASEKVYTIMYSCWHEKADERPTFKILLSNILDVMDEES
BTK inhibition (%) (BTK [2]; [3]),Compound,BTK inhibition (%) (BTK [2]; [4]),other results
28%,Cc1cc(C2CCCCC2)n(O)c(=O)c1 [PCM-0086120],,inhibition at 10 µM (BTK [1]): 39.7%
91%,Cc1cc(Nc2cc(N3CCN(C)CC3)nc(/C=C/c3ccccc3)n2)n[nH]1 [PCM-0095056],,inhibition at 10 µM (BTK [1]): 85.5%
17.8%,COc1cc2c3cc1Oc1c(OC)c(OC)cc4c1[C@@H](Cc1ccc(O)c(c1)Oc1ccc(cc1)C[C@@H]3N(C)CC2)N(C)CC4 [PCM-0214866],,inhibition at 10 µM (BTK [1]): 21.4%
39.3%,O=c1c(O)c(-c2ccc(O)c(O)c2)oc2cc(O)cc(O)c12 [PCM-0065486],,inhibition at 10 µM (BTK [1]): 48.2%
78.6%,CN(c1ncccc1CNc1nc(Nc2ccc3c(c2)CC(=O)N3)ncc1C(F)(F)F)S(C)(=O)=O [PCM-0095340],,inhibition at 10 µM (BTK [1]): 84.8%
33.5%,CN(C)[C@@H]1C(=O)C(C(N)=O)=C(O)[C@@]2(O)C(=O)C3=C(O)c4c(O)cccc4[C@@](C)(O)[C@H]3[C@H](O)[C@@H]12 [PCM-0214652],,inhibition at 10 µM (BTK [1]): 35.8%
77%,Cc1ccc(-n2[nH]c(C)c(N=Nc3cccc(-c4cccc(C(=O)O)c4)c3O)c2=O)cc1C [PCM-0214811],,inhibition at 10 µM (BTK [1]): 80.2%
,C=C(COC(=O)OC)C(=O)N1CCC[C@@H](n2nc(-c3ccc(Oc4ccccc4)cc3)c3c(N)ncnc32)C1 [3i],,IC50 (ERBB2): 172 nM; IC50 (ITK): 232 nM; B220+ cells-activated (CD86 positive) (primary mouse B cells): 85.0%; IC50 (EGFR): 31 nM; IC50 (BMX): 0.4 nM; IC50 (BLK): 0.8 nM
5.4%,CNCCc1ccccn1 [PCM-0086123],,inhibition at 10 µM (BTK [1]): 5.5%
13.2%,CCOc1ccccc1OCCN[C@H](C)Cc1ccc(OC)c(S(N)(=O)=O)c1 [PCM-0214853],,inhibition at 10 µM (BTK [1]): 7%
,"C=CC(=O)N1CCC[C@@H](n2nc(-c3ccc(Oc4ccccc4)cc3)c3c(N)ncnc32)C1 [ibrutinib, reference compound]",,B220+ cells-activated (CD86 positive) (primary mouse B cells): 81.2%
123.4%,COc1cc2nccc(Oc3ccc(NC(=O)C4(C(=O)Nc5ccc(F)cc5)CC4)cc3)c2cc1OC [PCM-0094920],,inhibition at 10 µM (BTK [1]): 86.9%
31.7%,COc1cc(Nc2ncc(F)c(Nc3ccc4c(n3)NC(=O)C(C)(C)O4)n2)cc(OC)c1OC [PCM-0095093],,inhibition at 10 µM (BTK [1]): 32.4%
17.2%,CN1CC[C@H](c2c(O)cc(O)c3c(=O)cc(-c4ccccc4Cl)oc23)[C@H](O)C1 [PCM-0095354],,inhibition at 10 µM (BTK [1]): 29.7%
,C=C(C)C(=O)N1CCC[C@@H](n2nc(-c3ccc(Oc4ccccc4)cc3)c3c(N)ncnc32)C1 [3a],,IC50 (wild-type BTK): 12.2 nM
-11.9%,Cc1c(O)c(=O)ccn1C [PCM-0090746],,
,CCN(C)C(=O)Oc1cccc([C@H](C)N(C)C)c1 [PCM-0086345],1.6%,
,COc1ccc(C=O)cc1O [PCM-0215127],,BTK inhibition (%) (BTK [2]): -7.8%
1.6%,CC[C@H]1OC(=O)[C@H](C)[C@@H](O[C@H]2C[C@@](C)(OC)[C@@H](O)[C@H](C)O2)[C@H](C)[C@@H](O[C@@H]2O[C@H](C)C[C@H](N(C)C)[C@H]2O)[C@](C)(O)C[C@@H](C)CN(C)[C@H](C)[C@@H](O)[C@]1(C)O [PCM-0214754],,
,CC(=O)O[C@H]1C[C@@H]2CC[C@@H]3[C@H](CC[C@@]4(C)[C@H]3C[C@H]([N+]3(C)CCCCC3)[C@@H]4OC(C)=O)[C@@]2(C)C[C@@H]1N1CCCCC1 [PCM-0214623],-6.2%,
,CC(=O)OC1CN2CCC1CC2 (stereo not drawn) [PCM-0215275],4.7%,
,N#C[C@H](O[C@@H]1O[C@H](CO[C@@H]2O[C@H](CO)[C@@H](O)[C@H](O)[C@H]2O)[C@@H](O)[C@H](O)[C@H]1O)c1ccccc1 [PCM-0094813],,BTK inhibition (%) (BTK [2]): -12.5%

BTK inhibition (%) (BTK [2]; [3]),Compound,BTK inhibition (%) (BTK [2]; [4]),other results
,CN(C)C(=O)Oc1ccc[n+](C)c1 [PCM-0065636],-25.7%,
,CCN(CC)CCOC(=O)C(O)(c1ccccc1)c1ccccc1 [PCM-0214873],8.6%,
,C=C[C@@H]1C2=CCOC(=O)C2=CO[C@H]1O[C@@H]1O[C@H](CO)[C@@H](O)[C@H](O)[C@H]1O [PCM-0214971],-0.8%,
-3.1%,Cc1cc(NS(=O)(=O)c2ccc(N)cc2)no1 [PCM-0085795],,
-14.7%,C/C=C(/C)C(=O)O[C@H]1[C@@H](OC(C)=O)c2c(ccc3ccc(=O)oc23)OC1(C)C [PCM-0216546],,
,CC(C)OC(=O)[C@H](C)N[P@](=O)(CO[C@H](C)Cn1cnc2c(N)ncnc21)Oc1ccccc1 [PCM-0215482],-3.1%,
,CC1=C2C(=O)[C@H]3[C@@H](CC=C4C[C@@H](O)CC[C@@]43C)[C@@H]2CC[C@]12O[C@@H]1C[C@H](C)CN[C@H]1[C@H]2C [PCM-0214856],,BTK inhibition (%) (BTK [2]): -12.5%
-45.1%,CC(C(=O)O)c1cccc(Oc2ccccc2)c1 (stereo not drawn) [PCM-0086452],,
70%,Cc1ccccc1C(=O)Nc1ccc(C(=O)N2CCCC(N(C)C)c3ccccc32)cc1 (stereo not drawn) [PCM-0095424],,
,O=C(O[C@H]1C[N+]2(CCCOc3ccccc3)CCC1CC2)C(O)(c1cccs1)c1cccs1 [PCM-0214751],-24.1%,
,O=c1ccc2c(O)c3ccoc3cc2o1 [PCM-0216332],,BTK inhibition (%) (BTK [2]): -11.6%
,Cc1cc2c(C(C)C)c(O)c(O)c(C=O)c2c(O)c1-c1c(C)cc2c(C(C)C)c(O)c(O)c(C=O)c2c1O [PCM-0064881],75.5%,
,CCCCCc1cc(O)cc(O)c1 [PCM-0215917],,BTK inhibition (%) (BTK [2]): -13.9%
,CC(C)=CCC[C@]1(C)C=Cc2c(O)c3c(c(CC=C(C)C)c2O1)O[C@]12C(=C[C@@H]4C[C@H]1C(C)(C)O[C@@]2(C/C=C(/C)C(=O)O)C4=O)C3=O [PCM-0214728],-1.6%,
,COC(=O)Nc1nc2ccccc2[nH]1 [PCM-0214885],-9.3%,
,CN1C2CC(OC(=O)C(CO)c3ccccc3)CC1C(O)C2 (stereo not drawn) [PCM-0216645],6.9%,
-39.1%,C[C@@H]1O[C@@H]1P(=O)(O)O [PCM-0216062],,
,C[C@@H]1O[C@@H](O[C@H]2C[C@@H](O)[C@]3(CO)[C@H]4[C@H](O)C[C@]5(C)[C@@H](C6=CC(=O)OC6)CC[C@]5(O)[C@@H]4CC[C@]3(O)C2)[C@H](O)[C@H](O)[C@H]1O [PCM-0214805],-5.4%,
,Cc1cc(C(C#N)c2ccc(Cl)cc2)c(Cl)cc1NC(=O)c1cc(I)cc(I)c1O (stereo not drawn) [PCM-0086145],20.2%,
,CCN(Cc1ccc(Cl)nc1)/C(=C/[N+](=O)[O-])NC [PCM-0214807],7%,
2.3%,CCC(=O)NS(=O)(=O)c1ccc(-c2c(-c3ccccc3)noc2C)cc1 [PCM-0216557],,
,C[C@H]1CC[C@@H]2N(C1)C[C@H]1[C@@H]3C[C@H]4[C@@H](CC(=O)[C@H]5C[C@@H](O)CC[C@@]54C)[C@@H]3CC[C@H]1[C@]2(C)O [PCM-0216485],,BTK inhibition (%) (BTK [2]): -13.9%

Compound,BTK inhibition (%) (BTK [2]; [3]),BTK inhibition (%) (BTK [2]; [4]),other results
CC[C@]12C=CCN3CC[C@]4(C(=C(C(=O)OC)C1)Nc1ccccc14)[C@@H]32 [PCM-0215925],13.9%,,inhibition at 10 µM (BTK [1]): 10.8%
